Earlier results in US20200101067A1 (IRR, Inc., priority 2013, published 2020).
Read-outs that look alike come from different tables or passages of the source.

Legend:
[1] = not given; remark: listed apart in the source
H1 receptor = H1 receptor (Homo sapiens, UniProt P35367); conditions: acidic pH, inflamed tissue
Chain of H1 receptor (P35367 whole entry): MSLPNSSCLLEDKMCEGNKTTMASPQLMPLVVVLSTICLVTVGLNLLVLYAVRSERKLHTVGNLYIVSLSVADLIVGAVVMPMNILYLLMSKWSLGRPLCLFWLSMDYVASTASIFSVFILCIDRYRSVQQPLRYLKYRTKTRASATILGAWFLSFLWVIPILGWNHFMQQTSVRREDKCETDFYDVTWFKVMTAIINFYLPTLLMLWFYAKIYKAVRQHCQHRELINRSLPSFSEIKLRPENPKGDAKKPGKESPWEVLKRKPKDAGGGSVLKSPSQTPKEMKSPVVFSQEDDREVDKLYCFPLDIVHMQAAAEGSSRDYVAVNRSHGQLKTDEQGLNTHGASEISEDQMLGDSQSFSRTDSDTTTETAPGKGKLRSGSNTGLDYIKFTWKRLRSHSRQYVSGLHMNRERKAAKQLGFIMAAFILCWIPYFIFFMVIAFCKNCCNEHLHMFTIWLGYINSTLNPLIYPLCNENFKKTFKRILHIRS

Row | Structure (SMILES) | Plasma concentration area under the curve profile, IV 7 mg vs approved 10 mg oral tablet (IV 7 mg) | Linear pharmacokinetics to dose (in vivo) | Steady-state level reached (in vivo) | Time to peak plasma level (in vivo) | Steady-state level reached (in vivo, listed as montelukast) | Effect of a standard meal on oral bioavailability and Cmax (oral) | Dose without clinically important adverse experiences ([1]; adult patients, 22 weeks) | Dose without clinically important adverse experiences ([1]; short-term studies, approximately one week) | Enhanced receptor affinity over first generation mepyramine / first generation molecules (H1 receptor) | Enhanced receptor affinity over first generation mepyramine / first generation molecules (H1 receptor; listed as levocetirizine) | Time to steady state level (in vivo) | Rhinovirus-induced ICAM-1 and cytokine expression and viral replication (human rhinovirus; airway epithelial cells) | ICAM-1, IL-6, IL-8, TLR3 expression and NF-kappa B activation (human rhinovirus; stated as in vivo) | Eosinophil migration (IL-4, IL-6, and IL-8) | Inflammatory mediators IL-4, IL-6, and IL-8 (IL-4, IL-6, and IL-8) | Principal side effect at higher doses ([1]; higher doses, up to 30 mg/day) | Dose that can be safely administered ([1]; studies in humans)
1 | CC(C)(O)c1ccccc1CC[C@@H](SCC1(CC(=O)O)CC1)c1cccc(/C=C/c2ccc3ccc(Cl)cc3n2)c1 [Montelukast, montelukast] | comparable | ≤ 50 mg | less than two | 3 to 4 h | two | not affected | up to 200 mg/day | up to 900 mg/day |  |  |  |  |  |  |  |  | 
2 | O=C(O)COCCN1CCN([C@H](c2ccccc2)c2ccc(Cl)cc2)CC1 [Levocetirizine, levocetirizine] |  |  |  |  |  |  |  |  | 5 × | up to 5 × | 40 h | inhibits | decrease | decrease | decrease | Sedation | up to 30 mg/day
